The structures appear in SMILES notation.

In one test the target is T1, PI3K-beta (Homo sapiens, UniProt P42338).
T1 construct: made in house
The test is described as follows: HTRF in vitro profiling assay for PI3K inhibition (beta isoform). The following applies: PI3K-beta enzyme pIC50 range, 200 pM enzyme, 100 uM ATP, 10 uM PIP2, 150 mM NaCl, corrected pIC50, read-out: PI3K-b Enz Activity. It is filed as biochemical. The source says:
HTRF In Vitro Profiling Assays for PI3K Inhibition
The PI3-Kinase profiling assays were developed to measure the compound-dependent inhibition of the alpha, beta, delta, and gamma isoforms of PI3K in an in vitro catalytic assay. This assay was developed and optimized from a kit produced by Upstate (Millipore catalog #33-017). Briefly, this procedure utilizes a pre-formed HTRF (Homogeneous Time-Resolved Fluorescence energy transfer) complex between four binding partners: 1) biotinylated PIP3, 2) GST tagged pleckstrin homology (PH) domain, 3) Europium labeled anti-GST monoclonal antibody, and 4) Streptavidin-Allophycocyanin (APC). The native PIP3 produced by PI 3-Kinase activity displaces biotin-PIP3 from the PH domain, resulting in the dissociation of the HTRF complex and a decrease in the fluorescence signal. The format of this assay is the same for all 4 isoforms of PI3K; the differences lie in the concentration of enzyme used to achieve the most robust signal. The alpha and delta assays are run at 400 pM enzyme; the beta assay is at 200 pM enzyme and the gamma assay is run at 1 nM enzyme. In addition, the alpha, beta and delta assays are run with 150 mM NaCl while the gamma assay is run in the absence of NaCl. The ATP concentration is 100 uM in the alpha, beta, and delta assays and 15 uM ATP in the gamma assay. All reactions are run at 10 uM PIP2
Compounds are serially diluted (3-fold in 100% DMSO) across a 384-well polypropylene mother plate from column 1 to column 12 and column 13 to column 24, to yield 11 concentrations for each test compound. Columns 6 and 18 contain only DMSO. Once titrations are made, […] is transferred to a 384-well low-volume assay plate (Greiner 784076). This assay plate contains three pharmacological controls (known PI3K inhibitors) and 3 assay controls: (1) Enzyme without inhibitor; (2) Buffer minus enzyme, and (3) Buffer minus enzyme plus native PIP3. DMSO is stamped into all wells of columns 6 and 18. PIP3 is added at 40 μM in 1× Reaction buffer (1 μL of 200 μM PIP3) to alternating rows of column 18 (wells 18 B, D, F, H, J, L, N, P). The no-enzyme control reactions are run in wells 18 A, C, E, G, I, K, M, O (0.1 μL of 100% DMSO).
The PI3-Kinase profiling assay was optimized using the HTRF kit provided by Upstate (Millipore). The assay kit contains seven reagents: 1) 4× Reaction Buffer; 2) native PIP2 (substrate); 3) Stop A (EDTA); 4) Stop B (Biotin-PIP3); 5) Detection Mix A (Streptavidin-APC); 6) Detection Mix B (Eu-labeled Anti-GST plus GST-tagged PH-domain); 7) Detection Mix C (KF). In addition, the following items were obtained or purchased: PI3Kinase (prepared by GSK BR&AD), dithiothreitol (Sigma, D-5545), Adenosine-5′-triphosphate (ATP, Teknova cat. # A0220), native PIP3 (1,2-dioctanoyl-sn-glycero-3-[phosphoinositil-3,4,5-triphosphate]tetraammonium salt (Avanti polar lipids, 850186P), DMSO (Sigma, 472301).
PI3Kinase Reaction Buffer is prepared by diluting the stock 1:4 with de-ionized water. Freshly prepared DTT is added at a final concentration of 5 mM on the day of use. Enzyme addition and compound pre-incubation are initiated by the addition of 2.5 μL of PI3K (at twice its final concentration) in 1× reaction buffer to all wells using a Multidrop Combi. Plates are incubated at room temperature for 15 minutes. Reactions are initiated by addition of 2.5 μL of 2× substrate solution (PIP2 and ATP in 1× reaction buffer) using a Multidrop Combi. Plates are incubated at room temperature for one hour. Reactions are quenched by the addition of 2.5 μL of stop solution (Stop A and Stop B pre-mixed at a ratio of 5:1, respectively) to all wells using the Multidrop Combi. […]
(In TR-FRET formats the signal depends on donor and acceptor labels being close together.)

Test [1] deals with pAKT(Ser473) in MDA-MB-468 cells. The test is described as follows: pAKT(Ser473) assay in MDA-MB-468 cells. It is filed as cell-based. The following applies: Homo sapiens, 0.5 h, compound treatment 30 minutes, MSD ELISA phospho AKT(Ser473), given as ranges, read-out: Cell Activity—pAKT IC50 in MDA-MB-468. As for the experimental part: pAKT(Ser473) Assay in MDA-MB-468 Cells
MDA-MB-468 cells were plated in 384-well flat clear bottom tissue culture plates (Corning #3701) at a density of 5000 cells per 0.057 cm2 in 48 ul of RPMI 1640 media supplemented with 10% fetal bovine serum (FBS). Cells were seeded with a Wellmate liquid handler (Matrix). Columns 1 through 23 were plated with cells and column 24 contained media alone. Cells were incubated at 37° C. with 5% CO2 for approximately 16-20 hours. Duplicate compound plates were prepared in 384-well polypropylene V-Bottom plates (Greiner #781280).
Compound titrations were made across the columns (A1-A20). 20 ul of compound was added to the first column and diluted into a 20 point curve with dimethylsulfoxide (DMSO, Thermo #TS2064) using a 2-fold dilution factor with a liquid handling robot (Hamilton). Columns 22 through 24 contained DMSO alone. Titrations were diluted 682-fold for compound treatment with 4 ul of compound added to 105 ul of RPMI media. Two ul of the diluted compound was added to the cell plates containing 48 ul of media using a multimek robot (Beckman Coulter). Final DMSO concentrations were 0.15%. Cells were treated with compound for 30 minutes at 37° C. with 5% CO2.
Following incubation, media was aspirated from dosed cell plates using an ELx405 plate washer (Bio-Tek) and 25 ul of 4° C. Meso Scale Discovery (MSD) lysis buffer with the addition of protease and phosphatase inhibitors (supplied in MSD kit #N31CB-1) was added to each well using a multidrop combi (Thermo). Precoated 4-spot per well MSD ELISA plates coated with total and phospho AKT(Ser473) antibody and BSA (supplied in kit) were blocked for 1 hour at room temperature with 35 ul per well of 1× MSD wash buffer+3% BSA (supplied in kit).
Blocked plates were washed 4 times with 100 ul per well of 1× Tris wash buffer (supplied in MSD kit) using an Elx405 plate washer (Bio-Tek). To each well, 20 ul of cell lysate was added using a multimek robot (Beckman Coulter) and the plate incubated at 4° C. overnight (˜12-24 hours). Following incubation, the ELISA plates were washed 4 times (100 ul/well) with 1× Tris wash buffer. Twenty microliters per well of 1× detection antibody (supplied in MSD kit) was added using a multidrop combi (Thermo), followed by a 2 hour incubation at room temperature. Detection antibody was aspirated and the plates washed 4 times (100 ul/well) with 1× Tris wash buffer. Read Buffer (supplied in MSD kit) was added at 1× (35 ul/well) at room temperature using a multidrop (Thermo). Relative luminescence units (RLU) were determined using a SECTOR™ Imager 6000 with MSD Workbench Software.
Concentration Response Curves for pAKT(Ser473):
For analysis of the pAKT(Ser473) concentration response curves, the data was normalized using Phospho AKT values divided by the sum of corresponding Total AKT and Phospho AKT values. The normalized values are plotted as the percent of the DMSO-treated control values on the corresponding plate. To determine IC50 values, the data is fit to a 4 parameter nonlinear sigmoidal dose response (variable slope) using GraphPad Prism version 4 for Windows, (GraphPad Software, San Diego Calif. USA). Criteria for curve fitting and IC50 determination include that the IC50 values from duplicate runs must be within 2 to 3-fold of each other, the Y min must be less than or equal to 30% of the DMSO-treated control and the Y max must range between 80-120%. Any data point equal to or greater than 40% of the curve was not utilized.
On the technique in general: An ELISA detects its analyte on a solid surface through an enzyme-linked reagent.

T1 sequence (P42338 whole entry): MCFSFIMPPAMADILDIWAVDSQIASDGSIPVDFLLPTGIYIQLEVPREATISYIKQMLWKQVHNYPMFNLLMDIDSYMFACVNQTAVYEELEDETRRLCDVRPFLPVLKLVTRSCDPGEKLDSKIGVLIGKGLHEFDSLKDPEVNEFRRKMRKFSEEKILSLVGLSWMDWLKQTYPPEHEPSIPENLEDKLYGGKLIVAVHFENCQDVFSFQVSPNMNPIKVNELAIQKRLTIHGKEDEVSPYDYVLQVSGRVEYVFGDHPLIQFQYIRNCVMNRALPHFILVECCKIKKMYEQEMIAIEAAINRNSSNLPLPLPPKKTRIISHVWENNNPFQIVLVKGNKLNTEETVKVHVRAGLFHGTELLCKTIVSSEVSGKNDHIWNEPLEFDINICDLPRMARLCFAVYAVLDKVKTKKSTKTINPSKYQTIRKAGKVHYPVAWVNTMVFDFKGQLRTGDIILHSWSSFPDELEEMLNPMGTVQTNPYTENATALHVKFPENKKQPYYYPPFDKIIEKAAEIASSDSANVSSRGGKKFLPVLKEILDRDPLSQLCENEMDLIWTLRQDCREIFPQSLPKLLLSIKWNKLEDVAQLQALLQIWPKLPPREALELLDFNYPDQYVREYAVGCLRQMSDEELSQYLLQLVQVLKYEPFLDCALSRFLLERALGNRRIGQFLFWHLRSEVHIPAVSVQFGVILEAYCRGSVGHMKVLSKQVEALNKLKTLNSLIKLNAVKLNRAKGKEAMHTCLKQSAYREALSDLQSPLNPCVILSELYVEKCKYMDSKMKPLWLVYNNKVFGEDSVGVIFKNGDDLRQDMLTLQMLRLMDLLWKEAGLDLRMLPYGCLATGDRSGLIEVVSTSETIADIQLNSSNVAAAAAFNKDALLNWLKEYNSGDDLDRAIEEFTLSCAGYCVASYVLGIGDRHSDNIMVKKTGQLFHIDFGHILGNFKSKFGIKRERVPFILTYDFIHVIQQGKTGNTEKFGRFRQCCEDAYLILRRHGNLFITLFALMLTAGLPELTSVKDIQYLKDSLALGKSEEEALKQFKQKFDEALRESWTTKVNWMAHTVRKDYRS
T1 sequence (P27986 whole entry partner): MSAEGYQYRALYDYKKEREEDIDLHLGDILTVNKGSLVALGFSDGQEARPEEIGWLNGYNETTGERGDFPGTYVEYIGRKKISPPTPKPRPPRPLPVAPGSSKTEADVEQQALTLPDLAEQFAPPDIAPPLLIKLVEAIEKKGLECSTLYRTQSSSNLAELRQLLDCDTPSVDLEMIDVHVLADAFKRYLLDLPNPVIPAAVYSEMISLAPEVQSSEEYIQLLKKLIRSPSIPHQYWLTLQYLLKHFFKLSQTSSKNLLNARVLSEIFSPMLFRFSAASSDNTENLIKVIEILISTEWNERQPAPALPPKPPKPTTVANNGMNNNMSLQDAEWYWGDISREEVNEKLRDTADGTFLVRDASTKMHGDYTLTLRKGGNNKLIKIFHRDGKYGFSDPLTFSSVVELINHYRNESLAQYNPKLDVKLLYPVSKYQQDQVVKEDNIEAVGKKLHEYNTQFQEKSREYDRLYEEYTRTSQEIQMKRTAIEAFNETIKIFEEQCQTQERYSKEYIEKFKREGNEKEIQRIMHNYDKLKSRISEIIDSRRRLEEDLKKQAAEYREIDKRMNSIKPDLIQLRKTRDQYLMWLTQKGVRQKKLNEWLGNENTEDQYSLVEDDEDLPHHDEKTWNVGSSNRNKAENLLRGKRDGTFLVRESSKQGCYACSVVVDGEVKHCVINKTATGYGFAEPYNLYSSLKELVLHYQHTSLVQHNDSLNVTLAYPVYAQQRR

In the case of `Cc1ccccc1Cc1c(C)n(C)n2c(=O)cc(-c3ccncc3)nc12` [Example 51, 1,2-dimethyl-3-(2-methylbenzyl)-5-(pyridin-4-yl)pyrazolo[1,5-a]pyrimidin-7(1H)-one], at PI3K-beta, the IC50 fell in the range of 126 to 1260 nM. With `CCc1nn2c(O)cc(C3CCOCC3)nc2c1Cc1cccc(Cl)c1Cl` [Example 15, 3-(2,3-dichlorobenzyl)-2-ethyl-5-(tetrahydro-2H-pyran-4-yl)pyrazolo[1,5-a]pyrimidin-7-ol], the IC50 was 1.26 to 10 nM on PI3K-beta and over 20000 nM in test [1]. In the same order, the values of `Cc1nn2c(-c3nn[nH]n3)cc(N3CCOCC3)nc2c1Cc1cccc(C(F)(F)F)c1C` [Example 46, 4-(2-methyl-3-(2-methyl-3-(trifluoromethyl)benzyl)-7-(2H-tetrazol-5-yl)pyrazolo[1,5-a]pyrimidin-5-yl)morpholine] are 12.6 to 100 nM and 1000 to 5000 nM.

As for `Oc1cc(-c2ccncc2)nc2c(Cc3cccc(Cl)c3Cl)c(C(F)(F)F)nn12` [Example 32, 3-(2,3-dichlorobenzyl)-5-(pyridin-4-yl)-2-(trifluoromethyl)pyrazolo[1,5-a]pyrimidin-7-ol], the IC50 on PI3K-beta is 1.26 to 10 nM; in test [1] it was 11000 to 20000 nM. Turning to `Cc1nn2c(-n3ccnc3)cc(N3CCOCC3)nc2c1Cc1cccc2ccccc12` [Example 44, 4-(7-(1H-imidazol-1-yl)-2-methyl-3-(naphthalen-1-ylmethyl)pyrazolo[1,5-a]pyrimidin-5-yl)morpholine], the IC50 at PI3K-beta lay within 126 to 1260 nM. Turning to `Cc1c(Cc2c(N)nn3c(O)cc(N4CCOCC4)nc23)cccc1C(F)(F)F` [Example 24, 2-amino-3-(2-methyl-3-(trifluoromethyl)benzyl)-5-morpholinopyrazolo[1,5-a]pyrimidin-7-ol], the figures for the IC50 (at PI3K-beta; in test [1]) were 1.26 to 10 nM and under 1000 nM, respectively.

With `Cc1nn2c(O)cc(-c3ccncc3)nc2c1Cc1cccc(Cl)c1Cl` [Example 30, 3-(2,3-dichlorobenzyl)-2-methyl-5-(pyridin-4-yl)pyrazolo[1,5-a]pyrimidin-7-ol], the values for the IC50 (at PI3K-beta; in test [1]) were 0.126 to 1 nM and 6000 to 10000 nM, respectively.

In the case of `Cc1nn2c(N)cc(-c3ccncc3)nc2c1Cc1cccc(C(F)(F)F)c1C` [Example 6, 2-methyl-3-(2-methyl-3-(trifluoromethyl)benzyl)-5-(pyridin-4-yl)pyrazolo[1,5-a]pyrimidin-7-amine], the IC50 on PI3K-beta lay in the range of 12.6 to 100 nM. Consider `Cc1c(Cc2cccc(Cl)c2Cl)c2nc(-c3ccncc3)cc(=O)n2n1C` [Example 33, 3-(2,3-dichlorobenzyl)-1,2-dimethyl-5-(pyridin-4-yl)pyrazolo[1,5-a]pyrimidin-7(1H)-one], for which the IC50 on PI3K-beta is 126 to 1260 nM; in test [1], over 20000 nM.

`COc1cc(N2CCOCC2)nc2c(Cc3cccc(C(F)(F)F)c3C)cnn12` [Example 12, 4-(7-methoxy-3-(2-methyl-3-(trifluoromethyl)benzyl)pyrazolo[1,5-a]pyrimidin-5-yl)morpholine]: the IC50 at PI3K-beta lay within 126 to 1260 nM.

As to `Cc1nn2c(-c3nc[nH]n3)cc(N3CCOCC3)nc2c1Cc1cccc2ccccc12` [Example 40, 4-(2-methyl-3-(naphthalen-1-ylmethyl)-7-(1H-1,2,4-triazol-3-yl)pyrazolo[1,5-a]pyrimidin-5-yl)morpholine], the IC50 on PI3K-beta is 1.26 to 10 nM; in test [1] it was under 1000 nM.

For `Cc1cccc(Cc2cnn3c(O)cc(-c4ccncc4)nc23)c1C` [Example 14, 3-(2,3-dimethylbenzyl)-5-(pyridin-4-yl)pyrazolo[1,5-a]pyrimidin-7-ol], the IC50 is 1.26 to 10 nM at PI3K-beta and 1000 to 5000 nM in test [1]. For `COc1cc(-c2ccncc2)nc2c(Cc3cccc(Cl)c3Cl)c(C)nn12` [Example 34, 3-(2,3-dichlorobenzyl)-7-methoxy-2-methyl-5-(pyridin-4-yl)pyrazolo[1,5-a]pyrimidine], the IC50 at PI3K-beta lay within 126 to 1260 nM. Regarding `CC(=O)Nc1cc(N2CCOCC2)nc2c(Cc3cccc(C(F)(F)F)c3C)c(C)nn12` [Example 18, N-[2-methyl-3-{[2-methyl-3-(trifluoromethyl)phenyl]methyl}-5-(4-morpholinyl)pyrazolo[1,5-a]pyrimidin-7-yl]acetamide], on PI3K-beta, the IC50 fell in the range of 126 to 1260 nM. Same read-out and setting: to `Cc1c(Cc2cnn3c(Cl)cc(N4CCOCC4)nc23)cccc1C(F)(F)F` [Example 10, 4-(7-chloro-3-(2-methyl-3-(trifluoromethyl)benzyl)pyrazolo[1,5-a]pyrimidin-5-yl)morpholine] belongs 126 to 1260 nM; to `Cc1ccccc1Cc1c(C)nn2c(-c3cn[nH]c3)cc(-c3ccncc3)nc12` [Example 49, 2-methyl-3-(2-methylbenzyl)-7-(1H-pyrazol-4-yl)-5-(pyridin-4-yl)pyrazolo[1,5-a]pyrimidine], 126 to 1260 nM; to `Cc1nn2c(N3CCOCC3)cc(N3CCOCC3)nc2c1Cc1cccc2ccccc12` [Example 28, 4,4′-(2-methyl-3-(naphthalen-1-ylmethyl)pyrazolo[1,5-a]pyrimidine-5,7-diyl)dimorpholine], 126 to 1260 nM.

The values above are taken from US9096605B2, “Pyrazolopyrimidine derivatives as PI3 kinase inhibitors” (GlaxoSmithKline LLC, priority 2011, dated 2015).
